Laboratory results from US11266655B2, “Methods and compositions for treating urea cycle disorders” (Camp4 Therapeutics Corporation, priority 2019, dated 2022).
Where “and” joins values, the source holds several entries; their conditions need not be identical. Identical values can stand only once. Like-named read-outs stand apart in the source and are kept apart here.

Assays:
[1] = system: urea cycle genes; experiment: RNA-seq of primary human hepatocytes, compounds that modulate multiple urea cycle-related genes; assay type: cell-based; details: primary human hepatocytes, RNA-seq
[2] = system: CPS1; experiment: RNA-seq of compound-treated primary human hepatocytes, CPS1 expression; assay type: cell-based; details: for Relative CPS1 level vs Untreated (±Standard Deviation): triplicate (Table 19, FIG. 11)
[3] = system: ASS1; experiment: RNA-seq of compound-treated primary human hepatocytes, ASS1 expression; assay type: cell-based
[4] = system: OTC; experiment: RNA-seq of compound-treated primary human hepatocytes, OTC expression; assay type: cell-based
[5] = system: SLC25A15; experiment: RNA-seq of compound-treated primary human hepatocytes, SLC25A15 expression; assay type: cell-based
[6] = system: SLC25A13; experiment: RNA-seq of compound-treated primary human hepatocytes, SLC25A13 expression; assay type: cell-based; details: for Relative SLC25A13 level vs Untreated (±Standard Deviation): primary human hepatocytes, triplicate (Table 23, FIG. 15)
[7] = system: NAGS; assay type: cell-based, human
[8] = system: ARG1; experiment: RNA-seq of compound-treated primary human hepatocytes, ARG1 expression; assay type: cell-based
[9] = primary human hepatocytes, RNA-seq
[10] = 3 μM, primary human hepatocytes, triplicate (Table 24, FIG. 16A-B)
[11] = 10 μM, primary human hepatocytes, triplicate (Table 24, FIG. 16A-B)
[12] = 10 μM, primary human hepatocytes, triplicate (Table 15, FIG. 7)
[13] = 0.3 μM, primary human hepatocytes, triplicate (Table 21, FIG. 13)
[14] = 1 μM, primary human hepatocytes, triplicate (Table 21, FIG. 13)
[15] = 10 μM, primary human hepatocytes, triplicate (Table 21, FIG. 13)
[16] = Example 11, relative mRNA vs DMSO
[17] = 1 μM, primary human hepatocytes
[18] = 3 μM, primary human hepatocytes, triplicate (Table 17, FIG. 9)

Compound | Relative SLC25A15 level vs Untreated (±Standard Deviation) [5, 10] | Relative SLC25A15 level vs Untreated (±Standard Deviation) [5, 11] | Relative SLC25A13 level vs Untreated (±Standard Deviation) ([6]; 3 μM) | Relative SLC25A13 level vs Untreated (±Standard Deviation) ([6]; 10 μM) | Relative ASS1 level vs Untreated (±Standard Deviation) [3, 12] | Relative NAGS level vs Untreated (±Standard Deviation) [7, 13] | Relative NAGS level vs Untreated (±Standard Deviation) [7, 14] | Relative NAGS level vs Untreated (±Standard Deviation) [7, 15] | Relative ASS1 level vs Untreated (±Standard Deviation) [3] | Relative SLC25A15 level vs Untreated (±Standard Deviation) [5] | Relative NAGS level vs Untreated (±Standard Deviation) [7] | Relative CPS1 level vs Untreated (±Standard Deviation) [2, 17] | Relative ARGI level vs Untreated (±Standard Deviation) [8, 18] | other results
TNF-α |  |  |  |  |  |  |  |  |  |  |  |  |  | number of urea cycle genes whose expression was significantly up-regulated [1]: four; Up-regulated Genes ([1]; urea cycle-related genes significantly increased (Table 10)): CPS1, ASS1, OTC, ARG1; CPS1 expression, Fold change (Log 2) vs untreated [2, 9]: 2.31 Log 2; Fold change (Log 2) vs untreated, ASS1 expression ([3]; primary human hepatocytes, RNA-seq (Table 4)): 0.58 Log 2; OTC expression, Fold change (Log 2) vs untreated [4, 9]: 0.87 Log 2
COc1cccc2cc(-c3nc([C@H]4CC[C@H](C(=O)O)CC4)n4ncnc(N)c34)[nH]c12 [OSI-027] | 1.87 ± 0.46 | 1.52 ± 0.04 | 1.87 ± 0.46 | 1.52 ± 0.04 | 2.05 ± 0.00 | 1.46 ± 0.07 | 1.37 ± 0.27 | 2.14 ± 0.12 |  |  |  |  |  | Relative SLC25A15 level vs Untreated (±Standard Deviation) ([5]; 1 μM, primary human hepatocytes, triplicate (Table 24, FIG. 16A-B)): 1.53 ± 0.01; Relative SLC25A13 level vs Untreated (±Standard Deviation) ([6]; 1 μM): 1.53 ± 0.01; Relative ASS1 level vs Untreated (±Standard Deviation) ([3]; 1 μM, primary human hepatocytes, triplicate (Table 15, FIG. 7)): 1.55 ± 0.16; Relative ASS1 level vs Untreated (±Standard Deviation) ([3]; 3 μM, primary human hepatocytes, triplicate (Table 15, FIG. 7)): 1.45 ± 0.10; Relative NAGS level vs Untreated (±Standard Deviation) ([7]; 3 μM, primary human hepatocytes, triplicate (Table 21, FIG. 13)): 2.51 ± 0.16
FC(F)(F)c1ccc(/C=C/c2nc(COc3ccc(CCCCn4ccnn4)cc3)co2)cc1 [Mubritinib (TAK 165), Mubritinib] |  |  |  |  |  |  |  |  | 2.56 ± 0.11 and 2.23 ± 0.53 and 2.52 ± 0.15 and 1.66 ± 0.98 and 1.87 ± 0.24 and 2.14 ± 0.39 and 2.77 ± 0.69 |  |  |  |  | Increase in SLC25A15 gene expression (qualitative) [5]: greatest increase; Relative SLC25A13 level vs Untreated (±Standard Deviation) ([6]; 0.3 μM): 1.34 ± 0.33; increase in CPS1 gene expression (Tables 19, 20, FIG. 11, 12) [2]: greatest increase; increase in ASS1 gene expression (Tables 15, 16, FIG. 7, 8) [3]: greatest increase; increase in OTC gene expression (Table 14, FIG. 6) [4]: significant increase; Relative ARGI level vs Untreated (±Standard Deviation) [8]: 1.93 ± 0.05 and 1.86 ± 0.04; increase in ARG1 gene expression (Tables 17, 18, FIG. 9, 10) [8]: greatest increase
O=C1CCc2c(Oc3ccc4c(c3)[C@@H]3[C@H](O4)[C@H]3c3nc4ccc(C(F)(F)F)cc4[nH]3)ccnc2N1 [Lifirafenib (BGB-283), Lifirafenib] |  |  |  | 1.92 ± 0.11 |  |  |  |  | 1.55 ± 0.28 | 1.92 ± 0.11 and 2.00 ± 0.13 | 1.35 ± 0.35 and 1.44 ± 0.15 |  |  | increase in SLC25A13 gene expression (Table 23, FIG. 15) [6, 16]: greatest increase
COc1ccc(-c2ccc3c(N4CCOC[C@@H]4C)nc(N4CCOC[C@@H]4C)nc3n2)cc1CO [AZD8055] | 1.33 ± 0.06 and 1.85 ± 0.26 | 1.54 ± 0.12 and 1.68 ± 0.26 | 1.33 ± 0.06 | 1.54 ± 0.12 | 1.44 ± 0.27 | 1.31 ± 0.20 | 1.41 ± 0.28 | 1.93 ± 0.02 |  |  |  | 1.38 ± 0.67 | 1.42 ± 0.03 | Relative CPS1 level vs Untreated (±Standard Deviation) ([2]; 0.3 μM, primary human hepatocytes): 1.38 ± 0.27; Relative CPS1 level vs Untreated (±Standard Deviation) ([2]; 3 μM, primary human hepatocytes): 1.60 ± 0.07; increase in NAGS gene expression (Tables 21, 22, FIG. 13, 14) [7, 16]: greatest increase; Relative ARGI level vs Untreated (±Standard Deviation) ([8]; 1 μM, primary human hepatocytes, triplicate (Table 17, FIG. 9)): 1.34 ± 0.24; Relative ARGI level vs Untreated (±Standard Deviation) ([8]; 10 μM, primary human hepatocytes, triplicate (Table 17, FIG. 9)): 1.35 ± 0.08
CCNC(=O)Nc1ccc(-c2nc(N3CCOC[C@@H]3C)c3c(n2)C(C)(C)S(=O)(=O)C3)cc1 [CZ415] |  |  | 1.61 ± 0.19 | 1.52 ± 0.17 | 1.65 ± 0.11 |  |  |  |  | 1.61 ± 0.19 and 1.52 ± 0.17 | 2.00 ± 0.27 | 1.32 ± 0.04 | 1.35 ± 0.12 | increase in NAGS gene expression (Tables 21, 22, FIG. 13, 14) [7]: greatest increase
